Experiment: gradient 5% acetonitrile 3 min, to 50% in 2 min, to 85% in 15 min, held 3 min, 100 µL/min
Conditions: column: Zorbax Extend-C18 2.1 x 50 mm; eluents: water / acetonitrile, 0.1% formic acid
Method in brief: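 Each retention time is based on an adduct peak selected computationally and verified by manual inspection. Measurements used HPLC–quadrupole time-of-flight mass spectrometry in positive and negative ionization mode on mixtures of ~100 pure standards. Chromatography ran on a Zorbax Extend-C18 column (2.1 × 50 mm, 1.8 μm) at 100 μL/min with water and acetonitrile, each containing 0.1% formic acid, and dead and dwell volumes of 40 μL and 900 μL.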

| RP-LC retention time [s] | Compound |
| --- | --- |
| 610 | Cc1nn(CC(=O)NCCN2CCOCC2)c(=O)c2nc(-c3ccccc3)sc12 |
| 664 | Cc1cc(C)c(S(=O)(=O)NC(C)Cn2cncn2)c(C)c1 (stereo not given) |
| 1130 | O=C1c2ccccc2-c2c1c1ccccc1c(=O)n2Cc1ccccc1 |
| 693 | COc1ccccc1NC(=O)c1cccc(N2CCNC(c3ccccc3)C2)n1 (stereo not given) |
| 663 | COc1ccc(CNC(=O)C2CCCN(c3cc(=O)n(C)c(=O)n3C)C2)cc1 (stereo not given) |
| 630 | O=C(CSc1ncc(-c2ccccc2)[nH]1)N1CCCc2ccccc21 |
| 982 | COc1cccc(NC(=O)Cn2cnc3c(sc4nc(-c5ccccc5)ccc43)c2=O)c1 |
| 773 | CC(C)(CO)NS(=O)(=O)c1cc(-c2nnc(-c3ccccc3)o2)ccc1F |
| 882 | Cc1ccc(CNC(=O)CCc2c(C)nn(-c3cc(N4CCCCC4)ncn3)c2C)o1 |
| 695 | CCn1ccc(C(=O)N2CC(c3nc(-c4ccsc4)nn3C)C2)n1 |
| 590 | CNC(=O)c1cc(N2CCOCC2)nc2ccc(F)cc12 |
| 760 | CCCN(C)C(=O)c1ccc2c(c1)Sc1ncccc1C(=O)N2C(C)C |
| 808 | CC(C)CN1CCn2cc(S(=O)(=O)NCc3cc(F)cc(F)c3)cc2C1=O |
| 1100 | Cc1cc(C)cc(NC(=O)C2CCCN(c3nc4ccsc4c(=O)n3-c3cccc(C)c3)C2)c1 (stereo not given) |
| 652 | O=C(C1CCN(c2cc(N3CCCCC3)ncn2)CC1)N1CCCCC1 |
| 990 | COc1ccc(-c2nnc(Cc3nc(-c4ccc(Cl)cc4)no3)o2)cc1OC |
| 718 | COc1ccc(-c2cn3cccnc3n2)cc1NC(=O)c1ccc(F)c(F)c1 |
| 728 | Cn1nnc2cc(C(=O)N3CCC(C(=O)NC4CCCc5ccccc54)CC3)ccc21 (stereo not given) |
| 727 | O=C(c1ccco1)N1CCN(C(=O)c2c3c(nc4ccccc24)C(=O)N(C2CCCCC2)C3)CC1 |
| 672 | CCNC(=O)N1CC=C(C(=O)Nc2ccc(F)cc2)CC1 |
| 584 | O=C(NC1CC1)C1CCCN(C(=O)c2ccoc2)C1 (stereo not given) |
| 812 | CC1CO/C(=C2\C(=O)OCC2C)C1 (stereo not given) |
| 760 | COc1cccc(NC(=O)c2cc3c(s2)CN(C2CC2)C3)c1 |

| RP-LC retention time [s] | Compound |
| --- | --- |
| 730 | O=C(Cc1nnc(-c2ccc3ncccc3c2)o1)Nc1ccc(F)cc1Cl |
| 747 | O=c1ccc(N2CCC(NS(=O)(=O)c3ccccc3Cl)CC2)nn1CC1CC1 |
| 680 | CCCNC(=O)C1CCCN(c2nc3ncn(CC(=O)NCc4ccc(OC)cc4)c(=O)c3s2)C1 (stereo not given) |
| 615 | Cc1nn(C(C)C(=O)NCCCN2CCOCC2)c(=O)c2c(C)n(-c3ccccc3)nc12 (stereo not given) |
| 702 | CC(C)n1cnc(S(=O)(=O)N2CCCC(C(=O)NCc3ccccc3)C2)c1 (stereo not given) |
| 782 | COc1ccc(-c2noc(-c3ccc(NCC4CCCO4)nn3)n2)cc1 (stereo not given) |
| 1210 | Cc1cccc(-c2noc(C3CCCN3S(=O)(=O)c3ccc(C)c(C)c3)n2)c1 (stereo not given) |
| 626 | CNC(=O)C1CC(=O)N(c2ccc(C)cc2)C1 (stereo not given) |
| 571 | O=C([C@@H]1C[C@H](Oc2cccnc2)CN1C(=O)C1CC=CC1)N1CCCC1 |
| 585 | CC(=O)N1CCc2cc(C)c(S(=O)(=O)N3CCN(C)CC3)cc21 |
| 746 | CCOCC(=O)N1CC(F)(F)C[C@H]1c1nc(C2CC2)no1 |
| 951 | CSc1ccc(CNC(=O)C2CCCN(c3nccn4nc(-c5ccc(F)cc5)cc34)C2)cc1 (stereo not given) |
| 1060 | CC1CC(C)CN(S(=O)(=O)N2CCCC(C(=O)NCc3ccc(F)cc3)C2)C1 (stereo not given) |
| 1100 | Cc1ccc(N2CC(c3nc(-c4ccc5c(c4)nc(C)c(=O)n5C4CCCC4)no3)CC2=O)cc1 (stereo not given) |
| 1050 | Cc1c(Cl)cccc1S(=O)(=O)N1CCC2(CC1)OCCS2 |
| 673 | CC(=O)N(C1CC1)C1CCOC2(CCN(C(=O)c3ccsc3)CC2)C1 (stereo not given) |
| 730 | Cc1ccccc1S(=O)(=O)N1CCC2(CC1)NCCN=C2NCc1ccc(F)cc1 |
| 909 | CCOC(=O)c1c(C)n(-c2ccc(OC)cc2)c2ccc(OCC(N)=O)cc12 |
| 609 | COc1cc2nc(N3CCCN(C)CC3)nc(NC3CCN(Cc4ccccc4)CC3)c2cc1OC |
| 963 | CCc1nn2c(CNS(=O)(=O)c3cc(F)cc(F)c3)c(-c3ccccc3)nc2s1 |
| 885 | CCNc1nc(N2CCCC2)nc(-n2cnc(SC)n2)n1 |
| 604 | CCOC(=O)N1CCN(Cc2nc(-c3ccc(N4CCCC4)nc3)no2)CC1 |
| 578 | CCCOc1ccc(CN2C[C@@H](CO)[C@H](c3ccccn3)C2)cc1 |

| RP-LC retention time [s] | Compound |
| --- | --- |
| 566 | CCn1ccc(C(=O)N2CC(n3ccnc3C(C)C)C2)n1 |
| 910 | Cn1cnc2c(C(=O)NC3CCCCCC3)nn(-c3ccccc3)c2c1=O |
| 612 | Cc1cnc(CC2CCN(C(=O)Nc3ccc4c(c3)OCCO4)C2)n1C1CC1 (stereo not given) |
| 1030 | Cc1nc(-c2cc(S(=O)(=O)Nc3ccc(F)c(Cl)c3)c(C)s2)cs1 |
| 952 | CC(C)c1ccc(OCC(=O)Nc2cnn(C)c(=O)c2N2CCOCC2)cc1 |
| 979 | CCCS(=O)(=O)N1CC(=O)N(c2ccc(C)c(Cl)c2)C(C)(C(=O)NC2CCCCC2)C1 (stereo not given) |
| 781 | O=C(Cn1ccn2nc(-c3ccccc3)c(CO)c2c1=O)Nc1ccc(F)cc1F |
| 1060 | COc1cc(CNC(=O)C2CCCN(c3nccnc3Sc3ccc(C)cc3)C2)cc(OC)c1 (stereo not given) |
| 691 | CC(C)CC(=O)NCC12CCC=C1N(C)C(=O)CC2 (stereo not given) |
| 968 | CCOc1cccc(C2C(C(=O)OC(C)C)=C(C)NC3=C2C(=O)C(C(=O)OC)C(C)C3)c1 (stereo not given) |
| 961 | CCCN(CCC)c1nc(-c2ccc(Cl)cc2)nc2ccccc12 |
| 717 | CCc1cccc(C)c1NC(=O)Cn1nc2n(c1=O)CCCC2 |
| 650 | CCOC(=O)N1CCN(C(=O)C2CN(c3nc4ccc(OC)cc4s3)C2)CC1 |
| 593 | CCc1nccn1Cc1noc(-c2cccs2)n1 |
| 879 | CC(C)CNC(=O)CCn1c(=O)c2ccccc2n2c(=O)n(Cc3ccccc3F)nc12 |
| 977 | CCCNC(=O)C1=Cc2cc(Cl)cc(OC)c2OC=C1 |
| 610 | CCN1CCN(CCNC(=O)c2cc3n(n2)CCCN(Cc2ccc(Cl)cc2)C3=O)CC1 |
| 760 | O=C1CC(C(=O)N2CCCCCC2)CN1CCc1ccccc1 (stereo not given) |
| 684 | Cc1ccc(CN2CC(n3cc(COc4ccc(F)cc4)nn3)C2)s1 |
| 627 | CCC1CN(C(=O)N2CCC(C(=O)NCCCN3CCCC3)CC2)c2ccccc2O1 (stereo not given) |
| 647 | CCc1cc(=O)n(CC(=O)NCc2ccccc2)c(N2CCOCC2)n1 |
| 852 | Cc1ccc(NC(=O)COc2cc(C)nc(N3CCN(c4ccccc4)CC3)n2)cc1 |
| 734 | COc1ccc(Cn2nc3c(S(=O)(=O)N4CCOCC4)cccn3c2=O)cc1 |

| RP-LC retention time [s] | Compound |
| --- | --- |
| 977 | CCOC(=O)c1[nH]c(C)c(CN(Cc2ccco2)C(=O)Cc2ccccc2)c1C |
| 683 | COc1ccccc1CNC(=O)C1CCCN(c2nnc3ccc(Cl)cn23)C1 (stereo not given) |
| 1200 | CSc1ncn(-c2nc(N(C)C)nc(N3CCCCCC3)n2)n1 |
| 782 | O=C(Cn1cnc2nc(N3CCCC3)ncc2c1=O)Nc1ccc(Cl)cc1C(F)(F)F |
| 754 | Cc1ccc(C)c(NC(=O)N2CCC(N3CCN(Cc4ccc(F)cc4)C(=O)C3=O)CC2)c1 |
| 552 | O=C(c1ccc(=O)[nH]n1)N1CCN(S(=O)(=O)C2CC2)CC1 |
| 1030 | Cc1sc2ccn(C)c(=O)c2c1C(=O)NC1CCN(Cc2ccccc2)CC1 |
| 1050 | O=C1CCC(c2nc(-c3ccc4c(c3)OCO4)no2)=NN1Cc1ccccc1 |
| 1050 | O=c1c2cc(-c3cccs3)nn2cnn1Cc1nc(-c2ccccc2)no1 |
| 579 | CC1CCCN(CCCNC(=O)CCC(=O)N2CCc3c(c(C(=O)N4CCCC4)nn3C)C2)C1 (stereo not given) |
| 1080 | Cc1ccc(-c2noc(Cn3c(=O)n(-c4ccc(F)cc4)c(=O)c4sccc43)n2)cc1C |
| 758 | CC(=O)N1CCCc2cc(S(=O)(=O)CCC(=O)Nc3cc(C)ccc3C)ccc21 |
| 599 | Cc1ccc2c(Nc3ccc(C)c(F)c3)c(C(=O)N3CCOCC3)cnc2n1 |
| 726 | CCN(CC)c1nc2ccsc2c(=O)n1CCC(=O)NC1CCCC1 |
| 639 | CN1CCN(CCNC(=O)CCc2cn(-c3ccccc3)nc2-c2ccc3c(c2)OCO3)CC1 |
| 1180 | Cc1ccc(-c2csc(NC(=O)COc3ccc(Cl)cc3Cl)n2)cc1 |
| 606 | CCCc1cc(N2CCN(C(=O)c3cccc(N(C)C)c3)CC2)nc2nnc(C)n12 |
| 603 | COc1ccccc1NC(=O)N1CCN(C2=CC3=NC(C)CN3C=N2)CC1 (stereo not given) |
| 856 | CN(C)S(=O)(=O)c1ccc2c(c1)N(CC(=O)NC1CCCC1)C(=O)C1CCCCN21 (stereo not given) |
| 906 | Cn1cccc1C(=O)C(=O)NCc1ccc(Cl)cc1 |

| Compound | RP-LC retention time [s] |
| --- | --- |
| O=C(COc1ccc(F)cc1)N1CCN(Cc2noc3ccccc23)CC1 | 726 |
